molecular target: T1, SOS1 (Homo sapiens, UniProt Q07889); assay: biochemical
T1 sequence (Q07889 1-1333): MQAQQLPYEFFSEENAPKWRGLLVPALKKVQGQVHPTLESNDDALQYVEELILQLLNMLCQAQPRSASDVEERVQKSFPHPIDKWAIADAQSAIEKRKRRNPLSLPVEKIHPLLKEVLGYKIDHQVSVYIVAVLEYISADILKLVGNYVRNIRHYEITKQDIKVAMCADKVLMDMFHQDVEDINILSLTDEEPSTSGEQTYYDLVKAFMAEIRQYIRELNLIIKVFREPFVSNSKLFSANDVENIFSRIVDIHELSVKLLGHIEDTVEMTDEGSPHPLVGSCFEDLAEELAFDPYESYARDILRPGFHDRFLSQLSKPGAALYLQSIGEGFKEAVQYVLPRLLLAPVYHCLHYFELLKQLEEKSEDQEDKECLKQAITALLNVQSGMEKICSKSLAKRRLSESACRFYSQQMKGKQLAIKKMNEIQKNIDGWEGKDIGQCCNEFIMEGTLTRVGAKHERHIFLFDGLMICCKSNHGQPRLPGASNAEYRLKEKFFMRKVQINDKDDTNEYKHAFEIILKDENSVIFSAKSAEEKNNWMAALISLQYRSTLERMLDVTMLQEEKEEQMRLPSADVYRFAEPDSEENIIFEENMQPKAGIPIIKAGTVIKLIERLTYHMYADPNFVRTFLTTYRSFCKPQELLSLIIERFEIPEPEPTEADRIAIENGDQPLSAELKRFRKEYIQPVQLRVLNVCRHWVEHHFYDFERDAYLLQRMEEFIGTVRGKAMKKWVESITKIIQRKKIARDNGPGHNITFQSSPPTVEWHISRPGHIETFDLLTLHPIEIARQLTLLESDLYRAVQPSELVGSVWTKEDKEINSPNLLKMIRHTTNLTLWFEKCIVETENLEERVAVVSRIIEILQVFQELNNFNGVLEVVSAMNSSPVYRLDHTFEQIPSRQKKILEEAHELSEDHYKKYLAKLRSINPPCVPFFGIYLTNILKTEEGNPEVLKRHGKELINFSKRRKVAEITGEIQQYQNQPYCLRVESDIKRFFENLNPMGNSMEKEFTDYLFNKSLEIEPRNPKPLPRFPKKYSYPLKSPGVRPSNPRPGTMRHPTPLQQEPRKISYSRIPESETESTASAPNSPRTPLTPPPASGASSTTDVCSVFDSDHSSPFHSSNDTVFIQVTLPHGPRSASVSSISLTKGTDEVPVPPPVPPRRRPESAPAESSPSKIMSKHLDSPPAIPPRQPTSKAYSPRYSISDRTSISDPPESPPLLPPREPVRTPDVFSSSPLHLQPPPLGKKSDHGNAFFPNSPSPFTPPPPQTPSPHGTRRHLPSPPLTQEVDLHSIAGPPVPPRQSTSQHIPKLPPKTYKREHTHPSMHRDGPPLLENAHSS

Point of comparison: `Cc1c([C@@H](C)Nc2nnc(N3CCN(C(C)(C)C)CC3)c3cc(=O)n(C4(C)CC4)cc23)cccc1C(F)(F)F` [Example 95, (R)-1-(4-(tert-butyl)piperazin-1-yl)-4-((1-(2-methyl-3-(trifluoromethyl)phenyl)ethyl)amino)-6-(1-methylcyclopropyl) pyrido[3,4-d]pyridazin-7(6H)-one], IC50 6.8 nM. Against it:
- C[C@@H](Nc1nnc(N2CC3CC2CO3)c2cc(=O)n(C3(C)CC3)cc12)c1cccc(C(F)(F)F)c1F (stereo partly drawn) [Example 175, 1-(2-oxa-5-azabicyclo[2.2.1]heptan-5-yl)-4-(((R)-1-(2-fluoro-3-(trifluoromethyl)phenyl)ethyl)amino)-6-(1-methylcyclopropyl) pyrido[3,4-d]pyridazin-7(6H)-one] — 1.9-fold higher, 13 nM
- C[C@@H](Nc1nnc(N2CC3CC3C2)c2cc(=O)n(C3CC3)cc12)c1cccc(C(F)F)c1F (stereo partly drawn) [Example 18, 1-(3-azabicyclo[3.1.0]hexan-3-yl)-6-cyclopropyl-4-(((R)-1-(3-(difluoromethyl)-2-fluorophenyl)ethyl)amino)pyrido[3,4-d]pyridazin-7(6H)-one] — within 1.5-fold, 5.7 nM
- Cc1c(C#N)cccc1[C@@H](C)Nc1nnc(N2CCC2)c2cc(=O)n(C3(C)CC3)cc12 [Example 70, (R)-3-(1-((1-(azetidin-1-yl)-6-(1-methylcyclopropyl)-7-oxo-6,7-dihydropyrido[3,4-d]pyridazin-4-yl)amino)ethyl)-2-methylbenzonitrile] — within 1.5-fold, 6.7 nM
- CCN(CC)c1nnc(N[C@H](C)c2cccc(C#N)c2C)c2cn(C3CC3)c(=O)cc12 [Example 40, (R)-3-(1-((6-cyclopropyl-1-(diethylamino)-7-oxo-6,7-dihydropyrido[3,4-d]pyridazin-4-yl)amino)ethyl)-2-methylbenzonitrile] — 4.8-fold higher, 32.5 nM
- C[C@@H](Nc1nnc(N2CC3CCCC3C2)c2cc(=O)n(C3(C)CC3)cc12)c1cccc(C(F)F)c1F (stereo partly drawn) [Example 188, 4-(((R)-1-(3-(difluoromethyl)-2-fluorophenyl)ethyl)amino)-1-(hexahydrocyclopenta[c]pyrrol-2(1H)-yl)-6-(1-methylcyclopropyl) pyrido[3,4-d]pyridazin-7(6H)-one] — 2.2-fold lower, 3.1 nM
- C[C@@H](Nc1nnc(N2C3CCC2COC3)c2cc(=O)n(C3(C)CC3)cc12)c1cccc(C(F)F)c1F [Example 202, 1-(3-oxa-8-azabicyclo[3.2.1]octan-8-yl)-4-(((R)-1-(3-(difluoromethyl)-2-fluorophenyl)ethyl)amino)-6-(1-methylcyclopropyl) pyrido[3,4-d]pyridazin-7(6H)-one] — 1.8-fold higher, 12.4 nM
- Cc1c(C#N)cccc1[C@@H](C)Nc1nnc(N2CC3CC3C2)c2cc(=O)n(C3CC3)cc12 (stereo partly drawn) [Example 35, 3-((1R)-1-((1-(3-azabicyclo[3.1.0]hexan-3-yl)-6-cyclopropyl-7-oxo-6,7-dihydropyrido[3,4-d]pyridazin-4-yl)amino)ethyl)-2-methylbenzonitrile] — 2.2-fold higher, 14.8 nM
- Cc1c([C@@H](C)Nc2nnc(N3CC4CC4C3)c3cc(=O)n(C4(C)CC4)cc23)cccc1C(F)(F)F (stereo partly drawn) [Example 62, 1-(3-azabicyclo[3.1.0]hexan-3-yl)-4-(((R)-1-(2-methyl-3-(trifluoromethyl)phenyl)ethyl)amino)-6-(1-methylcyclopropyl) pyrido[3,4-d]pyridazin-7(6H)-one] — within 1.5-fold, 9.4 nM
- C[C@@H](Nc1nnc(N2CC3(CCOCC3)C2)c2cc(=O)n(C3(C)CC3)cc12)c1cccc(C(F)F)c1F [Example 182, (R)-4-((1-(3-(difluoromethyl)-2-fluorophenyl)ethyl)amino)-6-(1-methylcyclopropyl)-1-(7-oxa-2-azaspiro[3.5]nonan-2-yl)pyrido[3,4-d]pyridazin-7(6H)-one] — within 1.5-fold, 5 nM
- Cc1c(C#N)cccc1[C@@H](C)Nc1nnc(N(C)C)c2cc(=O)n(C3CC3)cc12 [Example 39, (R)-3-(1-((6-cyclopropyl-1-(dimethylamino)-7-oxo-6,7-dihydropyrido[3,4-d]pyridazin-4-yl)amino)ethyl)-2-methylbenzonitrile] — 3.5-fold higher, 23.8 nM
- C[C@@H]1CCCN1c1nnc(N[C@H](C)c2cccc(C(F)F)c2F)c2cn(C3(C)CC3)c(=O)cc12 [Example 28, 4-(((R)-1-(3-(difluoromethyl)-2-fluorophenyl)ethyl)amino)-6-(1-methylcyclopropyl)-1-((R)-2-methylpyrrolidin-1-yl)pyrido[3,4-d]pyridazin-7(6H)-one] — within 1.5-fold, 5.7 nM
- C[C@@H](Nc1nnc(-n2nccn2)c2cc(=O)n(C3CC3)cc12)c1cccc(C(F)F)c1F [Example 32, (R)-6-cyclopropyl-4-((1-(3-(difluoromethyl)-2-fluorophenyl)ethyl)amino)-1-(2H-1,2,3-triazol-2-yl)pyrido[3,4-d]pyridazin-7(6H)-one] — 3.8-fold higher, 25.5 nM
- Cc1cc(N)cc([C@@H](C)Nc2nnc(N3CCN(C)CC3)c3cc(=O)n(C4CC4)cc23)c1F [Example 141, (R)-4-((1-(5-amino-2-fluoro-3-methylphenyl)ethyl)amino)-6-cyclopropyl-1-(4-methylpiperazin-1-yl)pyrido[3,4-d]pyridazin-7(6H)-one] — within 1.5-fold, 7.8 nM
- C[C@@H](Nc1nnc(N2CCN(CC3CC3)CC2)c2cc(=O)n(N3CCN(C)CC3)cc12)c1cccc(C(F)F)c1F [Example 154, (R)-1-(4-(cyclopropylmethyl)piperazin-1-yl)-4-((1-(3-(difluoromethyl)-2-fluorophenyl)ethyl)amino)-6-(4-methylpiperazin-1-yl)pyrido[3,4-d]pyridazin-7(6H)-one] — within 1.5-fold, 5.4 nM
- C[C@@H](Nc1nnc(N2CCN(C3CCC3)CC2)c2cc(=O)n(C3(C)CC3)cc12)c1cccc(C(F)(F)F)c1F [Example 173, (R)-4-((1-(2-fluoro-3-(trifluoromethyl)phenyl)ethyl)amino)-1-(4-cyclobutylpiperazin-1-yl)-6-(1-methylcyclopropyl) pyrido[3,4-d]pyridazin-7(6H)-one] — within 1.5-fold, 5.3 nM
- Cc1c(C#N)cccc1[C@@H](C)Nc1nnc(N2CCN(C3CCC3)CC2)c2cc(=O)n(C3CC3)cc12 [Example 100, (R)-3-(1-((1-(4-cyclobutylpiperazin-1-yl)-6-cyclopropyl-7-oxo-6,7-dihydropyrido[3,4-d]pyridazin-4-yl)amino)ethyl)-2-methylbenzonitrile] — 1.6-fold higher, 10.9 nM
- Cc1c([C@@H](C)Nc2nnc(N3CCS(=O)(=O)CC3)c3cc(=O)n(C4(C)CC4)cc23)cccc1C(F)(F)F [Example 68, (R)-1-(1,1-dioxidothiomorpholino)-4-((1-(2-methyl-3-(trifluoromethyl)phenyl)ethyl)amino)-6-(1-methylcyclopropyl) pyrido[3,4-d]pyridazin-7(6H)-one] — 2.8-fold higher, 18.9 nM
- Cc1c(C(F)F)cccc1[C@@H](C)Nc1nnc(N2CCN(C)CC2)c2cc(=O)n(C3CC3)cc12 [Example 210, (R)-6-cyclopropyl-4-((1-(3-(difluoromethyl)-2-methylphenyl)ethyl)amino)-1-(4-methylpiperazin-1-yl)pyrido[3,4-d]pyridazin-7(6H)-one] — 2.5-fold lower, 2.7 nM
- C[C@@H](Nc1nnc(N2CCC3(CCOCC3)C2)c2cc(=O)n(C3(C)CC3)cc12)c1cccc(C(F)F)c1F [Example 200, (R)-4-((1-(3-(difluoromethyl)-2-fluorophenyl)ethyl)amino)-6-(1-methylcyclopropyl)-1-(8-oxa-2-azaspiro[4.5]decan-2-yl)pyrido[3,4-d]pyridazin-7(6H)-one] — 1.6-fold lower, 4.2 nM

Reference: patent EP4722213A1, “NITROGEN-CONTAINING FUNCTIONAL GROUP-SUBSTITUTED PYRIDAZINOPYRIDONE DERIVATIVE AND USE THEREOF” (Sichuan Huiyu Pharmaceutical Co., Ltd., priority 2023, dated 2024)
